Among the data in PMC8074465, “Synthesis of oxadiazole-2-oxide derivatives as potential drug candidates for schistosomiasis targeting SjTGR” (Parasites & Vectors, 2021) are IC50 values, retold here.

This assay has as its target T1, rSjTGR-Sec (Schistosoma japonicum, UniProt B5THG7).
T1 sequence (B5THG7 1-596): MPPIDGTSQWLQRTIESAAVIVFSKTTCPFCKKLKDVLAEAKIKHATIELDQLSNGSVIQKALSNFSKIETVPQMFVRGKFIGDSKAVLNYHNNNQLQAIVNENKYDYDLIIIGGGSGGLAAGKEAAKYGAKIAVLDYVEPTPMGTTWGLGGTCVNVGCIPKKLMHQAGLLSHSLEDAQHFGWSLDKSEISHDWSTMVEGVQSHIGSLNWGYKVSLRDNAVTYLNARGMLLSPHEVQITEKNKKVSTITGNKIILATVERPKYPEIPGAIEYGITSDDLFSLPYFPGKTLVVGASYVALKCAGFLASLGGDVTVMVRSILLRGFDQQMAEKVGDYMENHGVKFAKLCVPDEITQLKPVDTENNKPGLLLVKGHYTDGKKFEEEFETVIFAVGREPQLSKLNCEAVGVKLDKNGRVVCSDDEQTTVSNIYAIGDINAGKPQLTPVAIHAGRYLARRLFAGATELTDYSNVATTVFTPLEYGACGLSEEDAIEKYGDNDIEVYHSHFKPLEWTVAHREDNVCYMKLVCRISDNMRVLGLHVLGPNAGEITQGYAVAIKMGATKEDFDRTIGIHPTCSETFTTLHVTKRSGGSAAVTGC
In words: Inhibition of TrxR activity of rSjTGR-Sec (DTNB reduction, absorbance 412 nm). The note with it: DTNB, pH 7.0, 25 °C, triplicate, >50 μM = flat response within range tested. In kind it is biochemical. As for the experimental part: The rSjTGR-Sec was expressed and harvested as described previously. […] The rSjTGR-Sec was purified by His Mag™ Agarose beads according to manufacturer’s instructions. The concentration of purified rSjTGR-Sec was determined using a Bradford assay kit (Sangon, China), and the protein was identified by sodium dodecyl sulfate polyacrylamide gel electrophoresis (SDS-PAGE) and stored at 4 °C [20].
The novel furoxan derivatives in this work were dissolved in DMSO with a storage solution concentration of 64 millimoles per liter. The analysis of TrxR activity of SWAP containing wtSjTGR and rSjTGR-Sec was performed based on methods described previously. Analysis of the inhibitory activity of the compounds against the TrxR activity of SWAP containing wtSjTGR and rSjTGR-Sec described in this paper was also based on a previously described method. The reaction was performed in 0.1 M potassium phosphate buffer (pH 7.0) containing 10 mM EDTA, 100 µM nicotinamide adenine dinucleotide phosphate (NADPH), 0.2 µg supernatant of SWAP containing wtSjTGR or 0.6 µg rSjTGR-Sec, and the studied compounds with different concentrations at 25 °C in a final volume of 200 μL, and was initiated by adding 3 mM DTNB. […] All assays were done in triplicate.

Like-named read-outs stand apart in the source and are kept apart here.

In the case of `COc1ccc(-c2no[n+]([O-])c2CNc2ccccc2)cn1` [9ca, 4-(6-methoxypyridin-3-yl)-3-((phenylamino)methyl)-1,2,5-oxadiazole 2-oxide], the IC50 – broadly, the concentration at which inhibition is half-maximal – (read-out: IC50 of rSjTGR-Sec) was above 50 µM.

Turning to `[O-][n+]1onc(-c2ccc(C(F)(F)F)nc2)c1CNc1ccccc1` [9da, 3-((phenylamino)methyl)-4-(6-(trifluoromethyl)pyridin-3-yl)-1,2,5-oxadiazole 2-oxide], under “read-out: IC50 of rSjTGR-Sec”, the concentration for half-maximal inhibition (IC50) is 3.73 ± 1.67 µM.

`N#Cc1c(-c2ccccc2)no[n+]1[O-]` [Furoxan, reference compound] displayed an IC50 (IC50 of rSjTGR-Sec) of 5.87 ± 1.37 µM.
